Key:
[1] = Safety (TEAEs) Part 1: tazemetostat coadministered with itraconazole; settings: human, in vivo
Procedure: Part 1 of the study evaluated the DDI between tazemetostat and itraconazole. On the mornings of Days 1 and 15, patients received a single dose of tazemetostat 400 mg orally. On Days 3‐14, patients received tazemetostat 400 mg twice daily (morning and evening). On Days 18‐20, patients received itraconazole 200 mg orally once daily in the morning. On Days 21‐35, tazemetostat 400 mg twice daily was coadministered in the morning with a single dose of itraconazole 200 mg. On Day 36, patients received a single dose of tazemetostat 400 mg coadministered in the morning with a single dose of itraconazole 200 mg. On Days 37 and 38, patients received a single dose of itraconazole 200 mg (Figure 1A). Throughout Part 1, administration of itraconazole occurred 1 hour after a meal.
(§1) Safety was assessed by monitoring treatment‐emergent adverse events (TEAEs) and vital signs, electrocardiography, and clinical laboratory tests. TEAEs were defined as adverse events that started or worsened in severity on or after the date of the first dose of the study drug through 30 days after the last dose. Treatment‐related TEAEs were summarized by each study drug for both study parts. Adverse events were coded using the Medical Dictionary for Regulatory Activities Version 23.1 and graded per Common Terminology Criteria for Adverse Events Version 5.0.

[2] = Safety (TEAEs) Part 2: tazemetostat coadministered with rifampin; settings: human, in vivo
Procedure: Part 2 of the study evaluated the DDI between tazemetostat and rifampin. On the mornings of Days 1 and 15, patients received a single dose of tazemetostat 800 mg orally. On Days 3‐14, patients received tazemetostat 800 mg twice daily. On Days 17‐23, patients received tazemetostat 800 mg twice daily, coadministered in the morning with a single dose of rifampin 600 mg orally. On the morning of Day 24, patients received a single dose of tazemetostat 800 mg coadministered with rifampin 600 mg. On the morning of Day 25, patients received rifampin 600 mg (Figure 1B). Throughout Part 2, administration of rifampin occurred 1 hour before a meal.
as §1

Row | SMILES | Treatment-related TEAE Grade 3 or 4, related to the named study drug, patients [1] | Treatment-related TEAEs, related to the named study drug, patients [1] | Treatment-related TESAE, related to the named study drug, patients [1] | Treatment-related TEAE Grade 3 or 4, related to the named study drug, patients [2] | Treatment-related TEAEs, related to the named study drug, patients [2] | Treatment-related TESAE, related to the named study drug, patients [2]
1 | CCC(C)n1ncn(-c2ccc(N3CCN(c4ccc(OCC5COC(Cn6cncn6)(c6ccc(Cl)cc6Cl)O5)cc4)CC3)cc2)c1=O (stereo not drawn) [Itraconazole] | 1 (4.8) n (%) | 8 (38.1) n (%) | 0 n (%) | – | – | –
2 | CO[C@H]1/C=C/O[C@@]2(C)Oc3c(C)c(O)c4c(O)c(c(/C=N/N5CCN(C)CC5)c(O)c4c3C2=O)NC(=O)/C(C)=C\C=C\[C@H](C)[C@H](O)[C@@H](C)[C@@H](O)[C@@H](C)[C@H](OC(C)=O)[C@@H]1C [Rifampin] | – | – | – | 1 (4.8) n (%) | 8 (38.1) n (%) | 0 n (%)

Source: article PMC12209990, “Effect of Cytochrome P450 3A Inhibition and Induction by Itraconazole and Rifampin on Tazemetostat Pharmacokinetics in Patients With Advanced Malignancies” (Clinical Pharmacology in Drug Development, 2025)
